Patent publication US6599894B1, “Amidinobenzylamine derivatives and their use as thrombin inhibitors” (AstŕaZeneca AB, priority 1999, dated 2003)

Assay: Test E: determination of thrombin time ex vivo (bioavailability of active inhibitor after prodrug administration)
Details: conscious rat, estimated from thrombin time or ecarin clotting time in plasma
Source text: Determination of Thrombin Time Ex Vivo
The inhibition of thrombin after oral or parenteral administration of the compounds of formula I, dissolved in ethanol:Solutol™:water (5:5:90), were examined in conscious rats which, one or two days prior to the experiment, were equipped with a catheter for blood sampling from the carotid artery. On the experimental day blood samples were withdrawn at fixed times after the administration of the compound into plastic tubes containing 1 part sodium citrate solution (0.13 mol per L) and 9 parts of blood. The tubes were centrifuged to obtain platelet poor plasma. The plasma was used for determination of thrombin time or ecarin clotting time (ECT) as described below.
The citrated rat plasma, 100 μL, was diluted with a saline solution, 0.9%, 100 μL, and plasma coagulation was started by the addition of human thrombin (T 6769, Sigma Chem Co, USA or Hematologic Technologies) in a buffer solution, pH 7.4, 100 μL, or ecarin (Pentapharm). The clotting time was measured in an automatic device (KC 10, Amelung, Germany).
[(AUCpd/dose)/(AUCactive,parenteral/dose]×100

Molecule | oral and/or parenteral bioavailability as the corresponding active inhibitor (free amidine)
CON=C(N)c1ccc(CNC(=O)[C@@H]2CCN2C(=O)C(O)c2cc(Cl)cc(N(C)C)c2)cc1 (single isomer, unassigned) [Example 12, Ph(3-Cl,5-NMe2)-(R) or-(S)CH(OH)C(O)-Aze-Pab(OMe)] | exhibit oral and/or parenteral bioavailability in the rat
CON=C(N)c1ccc(CNC(=O)C2CCN2C(=O)C(O)c2cc(Cl)cc(N(C)C(C)=O)c2)cc1.O=C(O)C(F)(F)F (single isomer, unassigned) [Example 18, Ph(3-Cl,5-NMeAc)-(R) or-(S)CH(OH)C(O)-Aze-Pab(OMe)×TFA] | exhibit oral and/or parenteral bioavailability in the rat
CON=C(N)c1ccc(CNC(=O)C2CCN2C(=O)C(O)c2cccc(N3CCCC3=O)c2)cc1.O=C(O)C(F)(F)F (single isomer, unassigned) [Example 19, Ph(3-(1-Pyrrolidin-2-one))-(R) or-(S)CH(OH)C(O)-Aze-Pab(OMe)×TFA] | exhibit oral and/or parenteral bioavailability in the rat
CON=C(N)c1ccc(CNC(=O)C2CCN2C(=O)C(O)c2cccc(N(C)C)c2)cc1 [Example 2, Ph(3-N(Me)2)-(R)- or-(S)CH(OH)—CO-Aze-Pab(OMe)] | exhibit oral and/or parenteral bioavailability in the rat
Ph(3-Cl,5-NMe2)-(R) or -(S)CH(OH)C(O)-Aze-Pab(O-Et) [Example 13] | exhibit oral and/or parenteral bioavailability in the rat
Ph(3-Cl,5-NMe2)-(R) or -(S)CH(OH)C(O)-Aze-Pab(O-i-Pr) [Example 15] | exhibit oral and/or parenteral bioavailability in the rat
